The source made the active and inactive calls.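 How the source made its calls: active means inhibition of at least 30% at one or more tested concentrations; inactive means inhibition below 30% at every dose.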

The assay is described as follows: inhibitors of Bluetongue virus cytopathic effect, confirmation, arbovirus, BSR cells (AID 1250). The conditions noted are these: BSR cells, Bluetongue virus CPE, ATP luminescence, 72 h.

`CCOc1ccc(-n2c(=O)[nH]c3sc4c(c3c2=O)CCCC4)cc1`: the CPE inhibition (at 20 µM (top of the series)) is 16.6% (inactive).

On to `CCOC(=O)c1c(-c2ccc(C)c(C)c2)csc1NC(=O)C1CC=CCC1C(=O)O` (stereo not given), for which the CPE inhibition (at 20 µM (top of the series)) is 29.6% (inactive).

As to `N#Cc1c(NC(=O)CSc2nnc(-c3ccccc3)o2)sc2c1CCCC2`, the CPE inhibition (at 20 µM (top of the series)) was -0.12% (inactive). Regarding `O=C(O)c1cc(-c2ccc(/C=N/Nc3ccc([N+](=O)[O-])cn3)o2)ccc1Cl`, the CPE inhibition (at 20 µM (top of the series)) was 21.4% (inactive). Still for that read-out and setting: then `Cc1nc(NS(=O)(=O)c2ccccc2C)c2c3c(sc2n1)CCC3`, with 27.6% (inactive); and `COCCCNc1nc(-c2ccncc2)nc2ccccc12`, with 7.45% (inactive). Same read-out and setting: then `COC(=O)c1cc(NC(=S)NCc2ccc(Cl)cc2)cc(C(=O)OC)c1`, with -1.18% (inactive); and `O=CNCC(=O)NCCc1ccc(Cl)cc1`, with 1.49% (inactive); and `COc1ccc(C2=CC(c3ccc(C)cc3)n3nnnc3N2)cc1` (stereo not given), with 6.94% (inactive). The same measure, in the same setting: the figure for `O=C1c2[nH]nc(-c3ccccc3O)c2C(c2ccc(F)cc2)N1CC1CCCO1` (stereo not given) is 10.9% (inactive). For `O=C(CCl)N=c1sccn1Cc1cccc2ccccc12`, under “at 20 µM (top of the series)”, the CPE inhibition is 7.67% (inactive). Consider `O=C(c1ccc2ccccc2n1)N1CCN(c2ccccc2Cl)CC1`, for which, under “at 20 µM (top of the series)”, the CPE inhibition was 8.76% (inactive). On the same count and under the same terms, the figure for `O=c1oc(/C=C/c2ccco2)nc2sc3c(c12)CCC3` is 21.9% (inactive); for `CC(C)c1ccc(C2=C(O)c3ccccc3C(=O)C2=O)cc1` it is 14.3% (inactive); for `O=C1CC(c2cccc([N+](=O)[O-])c2)c2ccc3ccccc3c2N1` (stereo not given) it is 8.81% (inactive). As to `Cc1cccc(OCC(=O)Nc2cccc(C(=O)Nc3ccccc3C(=O)O)c2)c1`, under “at 20 µM (top of the series)”, the CPE inhibition was 27.3% (inactive). In the case of `COc1cc2ccccc2cc1C(=O)NC(=S)Nc1cc(C(=O)O)ccc1C`, the CPE inhibition (at 20 µM (top of the series)) is 17.8% (inactive). Take `Nc1nc2ccccc2n1/N=C/c1ccc(-c2ccccc2)o1`: the CPE inhibition (at 20 µM (top of the series)) was 12.9% (inactive). Same read-out and setting: then `Cc1ccc(C)c(N2CCN(C(=O)Cc3ccc(-n4c(=O)[nH]c5ccsc5c4=O)cc3)CC2)c1`, with 13.2% (inactive).

For the molecule `COC(=O)c1ccccc1NC(=O)CN1CCC(n2nnc3cc(C(F)(F)F)ccc32)CC1`, for the setting “at 20 µM (top of the series)”, the CPE inhibition was 16.3% (inactive). Same read-out and setting: then `CCCCn1c(SCC(=O)N2CCN(c3ccccc3)CC2)nc2ccsc2c1=O`, with 6.77% (inactive); and `CCCC1=NN2C(=N)/C(=C\c3cc(C)n(-c4cccc(C)c4)c3C)C(=O)N=C2S1`, with 24% (inactive); and `O=C1NC(=Nc2ccc(Cl)cc2)SC1Cc1cccc(Cl)c1Cl` (stereo not given), with 12.4% (inactive). `COC(=O)c1ccc(NC(=O)c2ccccc2NS(C)(=O)=O)cc1`: the CPE inhibition (at 20 µM (top of the series)) was 22.4% (inactive).

Regarding `CC1=Nc2ccc(C)cc2/C1=C/c1c(N)n2c(S(=O)(=O)C(C)C)nsc2nc1=O`, the CPE inhibition (at 20 µM (top of the series)) is 15.9% (inactive). On the same count and under the same terms, then `CN(Cc1ccccc1)c1nc(N)c([N+](=O)[O-])c(NCc2ccccc2)n1`, with -7.95% (inactive). Same read-out and setting: the figure for `CCCc1cc(=O)[nH]c(SCc2ccc(C#N)cc2)n1` is 14.6% (inactive); for `Cc1cc(/C=C2/C(=N)N3C(=NC2=O)SN=C3S(C)(=O)=O)c(C)n1-c1ccc(F)cc1` it is 20.6% (inactive); for `COc1ccccc1NC(=O)CN1CCC(n2c(C)nc3cc(F)ccc32)CC1` it is 23.7% (inactive). On to `Nc1c(-c2ccccc2)c(CSc2nc3ccccc3[nH]2)nn1-c1cccc(Cl)c1`, for which, under “at 20 µM (top of the series)”, the CPE inhibition was 23.8% (inactive). On the same count and under the same terms, the figure for `Cc1nnc(SCC(=O)N2CCc3ccccc32)s1` is 3.29% (inactive); for `O=C(CSc1ccccc1)Nc1cc(Cl)ccc1Oc1ccccc1` it is 3.1% (inactive); for `CSc1nsc2nc(=O)c(/C=C3\C=Nc4ccccc43)c(N)n12` it is 20.5% (inactive). The same measure, in the same setting: then `O=C(Nc1nc(-c2ccccc2)ns1)c1cccs1`, with 15.2% (inactive); and `O=C(NNC(=S)NC1CCCCC1)c1ccc(Cl)s1`, with 28.3% (inactive); and `COc1ccc(F)cc1C(=O)C1CCCN(C(=O)CSc2ccccn2)C1` (stereo not given), with 17.6% (inactive). On the same count and under the same terms, then `Cc1ccc(NC2c3ncccc3C(=O)N2C2CCCCC2)cc1C` (stereo not given), with 12.7% (inactive); and `Fc1ccc(Br)cc1C1C=C(c2ccc(Br)cc2)Nc2ncnn21` (stereo not given), with 2.77% (inactive). Consider `O=C(Nc1cccc(Cl)c1)Nc1ccnc(-c2cccnc2)n1`, for which the CPE inhibition (at 5 µM (top of the series)) was 23.9% (inactive). `COC(=O)c1ccccc1NC(=O)CN1CCC(NC(=O)c2ccc(C)cc2)CC1`: the CPE inhibition (at 20 µM (top of the series)) was 21.3% (inactive). Same read-out and setting: the figure for `COc1ccc(/C=C2/C(=O)N(CC3CCCO3)C(=S)N2C)c(OC)c1` (stereo not given) is 1.63% (inactive); for `O=c1oc(/C=C/c2ccccc2)nc2ccccc12` it is 16.6% (inactive); for `CCCn1c(N)c(C(=O)CSc2nc3ccccc3c(=O)n2-c2ccc(OC)cc2)c(=O)[nH]c1=O` it is 1.41% (inactive).

Regarding `COc1ccc(C(=O)Nc2ccccc2C(=O)O)cc1Cl`, the CPE inhibition (at 20 µM (top of the series)) is 24.1% (inactive). Still for that read-out and setting: then `CCOCCCNC(=S)NCCNc1nc2c(C)cccc2cc1C#N`, with 7.38% (inactive). Regarding `FC(F)(F)c1ccc(Oc2ccc3ccccc3c2Br)nc1`, under “at 20 µM (top of the series)”, the CPE inhibition was 1.17% (inactive). As for `CCc1cccc(C)c1NC(=O)CN(C)Cc1ccc(Br)cc1`, the CPE inhibition (at 20 µM (top of the series)) was 10.2% (inactive). Still for that read-out and setting: the figure for `COc1ccc(CCN(C)Cc2ccc(F)cc2F)cc1OC` is 3.03% (inactive); for `CC1CC(C)(C)CC2(C1)NC(=O)N(CC(=O)NCCc1c[nH]c3ccccc13)C2=O` (stereo not given) it is 23.6% (inactive). Regarding `c1coc(CNc2c3c(nc4ncnn24)CCCC3)c1`, the CPE inhibition (at 20 µM (top of the series)) is 13.4% (inactive). For `O=C(Nc1ccccc1C(=O)O)c1ccc2ccccc2n1`, for the setting “at 20 µM (top of the series)”, the CPE inhibition was 16.2% (inactive). Turning to `O=C(Nc1c(-c2ccccc2)nc2ccccn12)c1cccs1`, the CPE inhibition (at 20 µM (top of the series)) was 20.6% (inactive). In the case of `Cc1ccc(-n2cccc2/C=C2\C(=N)N3N=C(C(C)C)SC3=NC2=O)cc1`, for the setting “at 20 µM (top of the series)”, the CPE inhibition is 25.2% (inactive). Still for that read-out and setting: then `CCC1=NN2C(=N)/C(=C\c3cccn3-c3ccc(C)cc3C)C(=O)N=C2S1`, with 27.2% (inactive). Take `Cc1nn(CC(=O)OCCOc2ccc(Br)cc2)c(C)c1[N+](=O)[O-]`: under “at 20 µM (top of the series)”, the CPE inhibition is 2.41% (inactive). Same read-out and setting: the figure for `Cc1noc(C)c1C(=O)OCC(=O)Nc1cc(Cl)ccc1Oc1ccccc1` is 22.6% (inactive); for `C=CCN(C(=O)c1cccc(N2C(=O)C3CC=CC(C)C3C2=O)c1)c1ccccc1` (stereo not given) it is 8.5% (inactive). Still for that read-out and setting: then `O=C(O)c1ccc(-c2nc(-c3ccc(Cl)cc3)cs2)cc1`, with 16.2% (inactive); and `CNc1ccccc1C(C)(C)c1cc(-c2cccc(OC)c2)no1`, with 7.83% (inactive). The same measure, in the same setting: then `CCc1ccc(N2CCN(C(=O)c3ccc(OC)c(OC)c3)CC2)cc1`, with 7.4% (inactive).

For the molecule `O=C(CSCC(=O)N1CCCCC1)OCC(=O)c1c[nH]c2ccccc12`, under “at 20 µM (top of the series)”, the CPE inhibition was -2.4% (inactive). For `N#C/C(=C\c1cc2ccccc2nc1N1CCCCC1)C(N)=O`, the CPE inhibition (at 20 µM (top of the series)) is 22.5% (inactive). On to `Cc1c(Cl)cccc1NC(=O)c1cc(-c2ccccc2O)n[nH]1`, for which the CPE inhibition (at 20 µM (top of the series)) is 17.9% (inactive). As for `CN(C)Cc1c(O)c(Cl)cc2c3c(c(=O)oc12)CCCC3`, the CPE inhibition (at 20 µM (top of the series)) is -0.25% (inactive).

For `Cc1cc(C)c(NC(=S)NC(=O)c2ccc(-c3ccccc3)cc2)c(C)c1`, the CPE inhibition (at 20 µM (top of the series)) is 14.9% (inactive). On the same count and under the same terms, the figure for `Cc1nn(C)cc1CN(C)Cc1ccc(OCC(O)CN2CCCCC2)cc1` (stereo not given) is 11.1% (inactive); for `COC(=O)c1ccccc1NC(=O)c1ccc(COc2ccc(C)c(C)c2)o1` it is 27.6% (inactive); for `CCc1ccc(S(=O)(=O)c2ccc(-n3nc(C)cc3N)cc2)cc1` it is 6.14% (inactive).

On to `COc1ccccc1NC(=O)C12CC3CC(C1)CC(c1ccc(C)cc1)(C3)C2`, for which, where the note is “at 20 µM (top of the series)”, the CPE inhibition was 18.9% (inactive). On the same count and under the same terms, then `O=C(CSc1nnc(NC(=O)c2c(F)cccc2F)s1)Nc1ccc(F)cc1`, with 3.41% (inactive); and `Cc1nc2c(C(=O)NCCC(C)C)c[nH]n2c(=O)c1Cl`, with 9.83% (inactive). Same read-out and setting: the figure for `O=C(c1coc(=O)c(Br)c1)N1CCCc2ccccc21` is 4.27% (inactive); for `CCOc1cccc2sc(NN)nc12` it is 14.3% (inactive).

On to `Cc1ccc(C)c(Cn2nnc3c(=O)[nH]c(C(=O)Nc4ccc(F)cc4)nc32)c1`, for which the CPE inhibition (at 20 µM (top of the series)) is 11.9% (inactive). Still for that read-out and setting: then `Cc1cccc(CSc2nn3c(=O)c(C)nnc3s2)c1`, with 19.1% (inactive); and `CCCCN(CC)C(=O)CSc1nc2c(sc(=S)n2-c2ccc(OCC)cc2)c(=O)[nH]1`, with 18.4% (inactive). As to `CCCC(=O)Oc1ccccc1C1SCc2cc(C)c(C)cc2CS1`, the CPE inhibition (at 20 µM (top of the series)) was 6.38% (inactive).

As for `CC(C)CCN(C(=S)NC(=O)C1CCCCC1)c1c(N)n(Cc2ccccc2)c(=O)[nH]c1=O`, the CPE inhibition (at 20 µM (top of the series)) was 7% (inactive). On the same count and under the same terms, the figure for `CCOC(=O)c1nn(-c2ccc(Cl)cc2)c2nc(Nc3ccccc3)cc(=O)n12` is 28.9% (inactive); for `Cc1ccc2nc(NC(=O)C3CCN(S(=O)(=O)c4cnc[nH]4)CC3)sc2c1` it is 14% (inactive); for `COc1cc(C2N=C(c3ccccc3)NO2)cc(Br)c1O` (stereo not given) it is 18.4% (inactive). `Cc1ccc(-n2cccc2/C=C2/C(=N)N3C(=NC2=O)SN=C3S(C)(=O)=O)cc1`: the CPE inhibition (at 20 µM (top of the series)) is 12.1% (inactive). Same read-out and setting: the figure for `O=C(O)c1ccccc1Sc1c([N+](=O)[O-])cc(C(F)(F)F)cc1[N+](=O)[O-]` is 9.2% (inactive); for `COc1cc(/C=C/C(=O)c2c(O)n(CCc3ccccc3)c(=O)[nH]c2=O)ccc1O` it is 13% (inactive). Still for that read-out and setting: the figure for `O=C(O)c1ccccc1CSc1ccccn1` is 2.46% (inactive).

The values are drawn from PubChem BioAssay AID1250 (SRMLSC, 2008).
